Measurements from US9328106B2, “Cyclic ether pyrazol-4-yl-heterocyclyl-carboxamide compounds and methods of use” (Genentech, Inc., priority 2012, dated 2016).

molecular target: PIM1 (Homo sapiens (Human), UniProt P11309); assay: biochemical; format: biochemical; details: 20 pM PIM1, 1 μM FAM-peptide, 10 μM ATP, 90 minutes at room temperature; read-out: PIM1 LC3K (KI)
Sequence (P11309 whole entry): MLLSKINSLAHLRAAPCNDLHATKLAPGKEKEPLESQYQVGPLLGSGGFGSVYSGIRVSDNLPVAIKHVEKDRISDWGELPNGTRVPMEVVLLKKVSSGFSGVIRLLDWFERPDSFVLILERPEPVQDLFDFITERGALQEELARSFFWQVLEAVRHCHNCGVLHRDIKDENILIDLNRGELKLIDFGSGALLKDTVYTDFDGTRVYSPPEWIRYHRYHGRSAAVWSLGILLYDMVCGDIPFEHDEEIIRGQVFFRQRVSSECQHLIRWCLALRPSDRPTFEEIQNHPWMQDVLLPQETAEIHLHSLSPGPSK
Protocol: Reaction Buffer contained 10 mM HEPES, pH 7.2, 10 mM MgCl2, 0.01% Tween 20, 2 mM DTT. Termination Buffer contained 190 mM HEPES, pH 7.2, 0.015% Brij-35, 0.2% Coating Reagent 3 (Caliper Life Sciences, Hopkinton, Mass.), 20 mM EDTA. Separation Buffer contained 100 mM HEPES, pH 7.2, 0.015% Brij-35, 0.1% Coating Reagent 3, 1:200 Coating Reagent 8 (Caliper Life Sciences, Hopkinton, Mass.), 10 mM EDTA and 5% DMSO.
PIM reactions were carried out in a final volume of 10 μL per well in a 384-well plate. […] After 90 minutes of incubation at room temperature, the phosphorylation reaction was stopped by the addition of 10 μL Termination Buffer. The product and substrate in each independent reaction were separated on a 12-sipper microfluidic chip (Caliper Life Sciences, Hopkinton, Mass.) run on a Caliper LC3000® (Caliper Life Sciences, Hopkinton, Mass.). The separation of product and substrate was optimized by choosing voltages and pressure using Caliper's Optimizer software (Hopkinton, Mass.). The separation conditions used a downstream voltage of −500V, an upstream voltage of −2150V, and a screening pressure of −1.2 psi. […] Substrate conversion was calculated from the electropherogram using HTS Well Analyzer software (Caliper Life Sciences, Hopkinton, Mass.). Ki values for the test compound were calculated.

Point of comparison: `Cn1ncc(NC(=O)c2nc(-c3c(F)cccc3F)sc2N)c1[C@H]1CC(F)[C@@H](N)CCO1` (stereo partly drawn) [Example 151, 5-Amino-N-[5-[(2R,5S)-5-amino-4-fluoro-oxepan-2-yl]-1-methyl-pyrazol-4-yl]-2-(2,6-difluorophenyl)thiazole-4-carboxamide], Ki 68 pM. Against it:
- Cn1ncc(NC(=O)c2ccc(F)c(-c3c(F)cc(C(CO)CO)cc3F)n2)c1[C@@H]1CC[C@@H](N)[C@H](F)CO1 [Example 214, N-(5-((2S,5R,6S)-5-amino-6-fluorooxepan-2-yl)-1-methyl-1H-pyrazol-4-yl)-6-(4-(1,3-dihydroxypropan-2-yl)-2,6-difluorophenyl)-5-fluoropicolinamide] — within 1.5-fold, 75 pM
- CC[C@]1(CO)CO[C@@H](c2c(NC(=O)c3nc(-c4c(F)cccc4F)sc3N)cnn2C)OC1 [Example 163, 5-Amino-2-(2,6-difluorophenyl)-N-[5-[5-ethyl-5-(hydroxymethyl)-1,3-dioxan-2-yl]-1-methyl-pyrazol-4-yl]thiazole-4-carboxamide] — 19-fold higher, 1260 pM
- Cn1ncc(NC(=O)c2nc(-c3ccccc3F)sc2N)c1[C@@H]1CC[C@@H](N)[C@@H](F)CO1 [Example 186, 5-Amino-N-(5-((2S,5R,6R)-5-amino-6-fluorooxepan-2-yl)-1-methyl-1H-pyrazol-4-yl)-2-(2-fluorophenyl)thiazole-4-carboxamide] — 9.7-fold lower, 7 pM
- COc1cc(F)c(-c2nc(C(=O)Nc3cnn(C)c3[C@@H]3CC[C@@H](N)[C@H](F)CO3)cs2)c(F)c1 [Example 296, N-(5-((2S,5R,6S)-5-amino-6-fluorooxepan-2-yl)-1-methyl-1H-pyrazol-4-yl)-2-(2,6-difluoro-4-methoxyphenyl)thiazole-4-carboxamide] — 2.2-fold lower, 31 pM
- Cn1ncc(NC(=O)c2csc(-c3ncccc3F)n2)c1[C@@H]1CC[C@@H](N)[C@H](F)CO1 [Example 237, N-(5-((2S,5R,6S)-5-amino-6-fluorooxepan-2-yl)-1-methyl-1H-pyrazol-4-yl)-2-(3-fluoropyridin-2-yl)thiazole-4-carboxamide] — 1.6-fold higher, 107 pM
- C[C@@H]1CC(O)CC[C@H](c2c(NC(=O)c3nc(-c4c(F)cccc4F)sc3N)cnn2C)O1 (stereo partly drawn) [Example 108, 5-amino-2-(2,6-difluorophenyl)-N-(5-((2R,7R)-5-hydroxy-7-methyloxepan-2-yl)-1-methyl-1H-pyrazol-4-yl)thiazole-4-carboxamide] — within 1.5-fold, 49 pM
- Cn1ncc(NC(=O)c2ccc(F)c(-c3c(F)cc(C4(O)CCOCC4)cc3F)n2)c1[C@@H]1CC[C@@H](N)[C@H](F)CO1 [Example 196, N-(5-((2S,5R,6S)-5-amino-6-fluorooxepan-2-yl)-1-methyl-1H-pyrazol-4-yl)-6-(2,6-difluoro-4-(4-hydroxytetrahydro-2H-pyran-4-yl)phenyl)-5-fluoropicolinamide] — 11-fold lower, 6 pM
- Cn1ncc(NC(=O)c2nc(-c3c(F)cccc3F)sc2N)c1C1CC(F)(F)CC(N)CO1 (centres unmarked) [Example 132, 5-amino-N-[5-(6-amino-4,4-difluoro-oxepan-2-yl)-1-methyl-pyrazol-4-yl]-2-(2,6-difluorophenyl)thiazole-4-carboxamide] — 4.9-fold lower, 14 pM
- C[C@H](O)c1cc(F)c(-c2nc(C(=O)Nc3cnn(C)c3[C@@H]3CC[C@@H](N)[C@H](F)CO3)cs2)c(F)c1 [Example 305, N-(5-((2S,5R,6S)-5-amino-6-fluorooxepan-2-yl)-1-methyl-1H-pyrazol-4-yl)-2-(2,6-difluoro-4-((S)-1-hydroxyethyl)phenyl)thiazole-4-carboxamide] — 8.5-fold lower, 8 pM
- Cn1ncc(NC(=O)c2csc(-c3ccccc3C(F)(F)F)n2)c1[C@@H]1CC[C@@H](N)[C@H](F)CO1 [Example 311, N-(5-((2S,5R,6S)-5-amino-6-fluorooxepan-2-yl)-1-methyl-1H-pyrazol-4-yl)-2-(2-(trifluoromethyl)phenyl)thiazole-4-carboxamide] — 24-fold higher, 1650 pM
- Cn1ncc(NC(=O)c2ccc(F)c(-c3c(F)cccc3F)n2)c1[C@@H]1CC[C@@H](N)[C@H](F)CO1 [Example 195, N-(5-((2S,5R,6S)-5-amino-6-fluorooxepan-2-yl)-1-methyl-1H-pyrazol-4-yl)-6-(2,6-difluorophenyl)-5-fluoropicolinamide] — 2.7-fold lower, 25 pM
- CC[C@]1(CO)CO[C@H](c2c(NC(=O)c3nc(-c4c(F)cccc4F)sc3N)cnn2C)OC1 [Example 162, 5-Amino-2-(2,6-difluorophenyl)-N-[5-[5-ethyl-5-(hydroxymethyl)-1,3-dioxan-2-yl]-1-methyl-pyrazol-4-yl]thiazole-4-carboxamide] — 2.7-fold lower, 25 pM
- Cn1ncc(NC(=O)c2nc(-c3c(F)cccc3F)sc2N)c1[C@H]1OC[C@H](CN)CO1 [Example 167, 5-Amino-N-[5-[5-(aminomethyl)-1,3-dioxan-2-yl]-1-methyl-pyrazol-4-yl]-2-(2,6-difluorophenyl)thiazole-4-carboxamide] — 2.3-fold lower, 29 pM
- Cn1ncc(NC(=O)c2csc(-c3c(F)cc(C4CCOC4)cc3F)n2)c1[C@@H]1CC[C@@H](N)[C@H](F)CO1 (stereo partly drawn) [Example 216, N-(5-((2S,5R,6S)-5-amino-6-fluorooxepan-2-yl)-1-methyl-1H-pyrazol-4-yl)-2-(2,6-difluoro-4-(tetrahydrofuran-3-yl)phenyl)thiazole-4-carboxamide] — 6.2-fold lower, 11 pM
- COc1ccc(-c2nc(C(=O)Nc3cnn(C)c3[C@@H]3CC[C@@H](N)[C@H](F)CO3)cs2)c(F)c1 [Example 293, N-(5-((2S,5R,6S)-5-amino-6-fluorooxepan-2-yl)-1-methyl-1H-pyrazol-4-yl)-2-(2-fluoro-4-methoxyphenyl)thiazole-4-carboxamide] — within 1.5-fold, 59 pM
- Cn1cc(-c2nc(C(=O)Nc3cnn(C)c3[C@@H]3CC[C@@H](N)[C@@H](F)CO3)cs2)c(C2CC2)n1 [Example 253, N-(5-((2S,5R,6R)-5-amino-6-fluorooxepan-2-yl)-1-methyl-1H-pyrazol-4-yl)-2-(3-cyclopropyl-1-methyl-1H-pyrazol-4-yl)thiazole-4-carboxamide] — 3.7-fold higher, 253 pM
- Cn1ncc(NC(=O)c2csc(-c3c(F)cc4c(c3F)OCC4)n2)c1[C@@H]1CC[C@@H](N)[C@H](F)CO1 [Example 391, N-(5-((2S,5R,6S)-5-amino-6-fluorooxepan-2-yl)-1-methyl-1H-pyrazol-4-yl)-2-(5,7-difluoro-2,3-dihydrobenzofuran-6-yl)thiazole-4-carboxamide] — 2.8-fold lower, 24 pM
- Cn1ncc(NC(=O)c2csc(-c3ccc(C4(C)COC4)cc3F)n2)c1[C@@H]1CC[C@@H](N)[C@H](F)CO1 [Example 393, N-(5-((2S,5R,6S)-5-amino-6-fluorooxepan-2-yl)-1-methyl-1H-pyrazol-4-yl)-2-(2-fluoro-4-(3-methyloxetan-3-yl)phenyl)thiazole-4-carboxamide] — 23-fold lower, 3 pM
- Cn1ncc(NC(=O)c2nc(-c3c(F)cccc3F)sc2N)c1[C@H]1C[C@@H](N)CCO1 (stereo in doubt) [Example 158, 5-Amino-N-[5-[4-aminotetrahydropyran-2-yl]-1-methyl-pyrazol-4-yl]-2-(2,6-difluorophenyl)thiazole-4-carboxamide] — 2.1-fold lower, 32 pM
- Cn1ncc(NC(=O)c2nc(-c3ccccc3C(F)(F)F)sc2N)c1[C@@H]1CC[C@@H](N)[C@@H](F)CO1 [Example 270, 5-amino-N-(5-((2S,5R,6R)-5-amino-6-fluorooxepan-2-yl)-1-methyl-1H-pyrazol-4-yl)-2-(2-(trifluoromethyl)phenyl)thiazole-4-carboxamide] — within 1.5-fold, 53 pM
- Cn1ncc(NC(=O)c2csc(-c3cccc(OCc4ccccc4)c3)n2)c1[C@@H]1CC[C@@H](N)[C@H](F)CO1 [Example 401, N-[5-[(2S,5R,6S)-5-amino-6-fluoro-oxepan-2-yl]-1-methyl-pyrazol-4-yl]-2-(3-benzyloxyphenyl)thiazole-4-carboxamide] — 6.6-fold higher, 447 pM
- CO[C@H]1CO[C@H](c2c(NC(=O)c3csc(-c4c(F)ccc(F)c4F)n3)cnn2C)CC[C@H]1N [Example 258, N-(5-((2S,5R,6R)-5-amino-6-methoxyoxepan-2-yl)-1-methyl-1H-pyrazol-4-yl)-2-(2,3,6-trifluorophenyl)thiazole-4-carboxamide] — 2.1-fold higher, 145 pM
- Cn1ncc(NC(=O)c2csc(-c3cccc(C(F)(F)F)n3)n2)c1[C@@H]1CC[C@@H](N)[C@H](F)CO1 [Example 314, N-(5-((2S,5R,6S)-5-amino-6-fluorooxepan-2-yl)-1-methyl-1H-pyrazol-4-yl)-2-(6-(trifluoromethyl)pyridin-2-yl)thiazole-4-carboxamide] — 31-fold higher, 2080 pM
- Cn1ncc(NC(=O)c2nc(-c3c(F)cccc3F)sc2N)c1[C@@H]1CC[C@@H](N)C(F)(F)CO1 [Example 168, 5-Amino-N-[5-[(2S,5R)-5-amino-6,6-difluoro-oxepan-2-yl]-1-methyl-pyrazol-4-yl]-2-(2,6-difluorophenyl)thiazole-4-carboxamide] — 5.2-fold lower, 13 pM
- Cn1ncc(NC(=O)c2csc(-c3ccccc3C(F)F)n2)c1[C@@H]1CC[C@@H](N)[C@H](F)CO1 [Example 298, N-(5-((2S,5R,6S)-5-amino-6-fluorooxepan-2-yl)-1-methyl-1H-pyrazol-4-yl)-2-(2-(difluoromethyl)phenyl)thiazole-4-carboxamide] — 12-fold higher, 783 pM
- Cn1ncc(NC(=O)c2nc(-c3c(F)cccc3F)sc2N)c1[C@@H]1C[C@H](O)CCO1 [Example 146, 5-amino-2-(2,6-difluorophenyl)-N-(5-((2S,4R)-4-hydroxytetrahydro-2H-pyran-2-yl)-1-methyl-1H-pyrazol-4-yl)thiazole-4-carboxamide] — within 1.5-fold, 95 pM
- Cn1ncc(NC(=O)c2nc(-c3cccc(C(F)(F)F)c3F)sc2N)c1[C@@H]1CC[C@@H](N)[C@@H](F)CO1 [Example 268, 5-amino-N-(5-((2S,5R,6R)-5-amino-6-fluorooxepan-2-yl)-1-methyl-1H-pyrazol-4-yl)-2-(2-fluoro-3-(trifluoromethyl)phenyl)thiazole-4-carboxamide] — 2.4-fold lower, 28 pM
- Cn1ncc(NC(=O)c2csc(-n3cccn3)n2)c1[C@@H]1CC[C@@H](N)[C@H](F)CO1 [Example 388, N-(5-((2S,5R,6S)-5-amino-6-fluorooxepan-2-yl)-1-methyl-1H-pyrazol-4-yl)-2-(1H-pyrazol-1-yl)thiazole-4-carboxamide] — 2.3-fold higher, 157 pM
